Assay results published in patent US12539287B2, “L-DOPA microbiome therapy” (Iowa State University Research Foundation, Inc., priority 2018, dated 2026).

Key:
[1] = Bz 50 mg/kg 3 times/day
Procedure: Mice were orally administered a single daily dose of 10^9 CFU EcN^2L-DOPA or PBS and also Bz (50 mg/kg) 3 times/day for 1 and 2 days. Plasma samples collected through submandibular sampling prior to EcN^2L-DOPA treatment (serving as baseline), and at 4, 8, 16, 24 and 48 h post-EcN^2L-DOPA and Bz (50 mg/kg) treatment, were assayed for L-DOPA production by HPLC. […] We increased the dose and frequency of Bz because of its short half-life.

[2] = cited from earlier work
[3] = humans; cited from earlier work

| Structure (SMILES) | duration of Bz plasma levels [1] | solubility in water [2] | optimal therapeutic plasma levels [3] [ng/mL] |
| --- | --- | --- | --- |
| NC(CO)C(=O)NNCc1ccc(O)c(O)c1O (stereo not drawn) [Bz, benserazide] | up to 30 h | – | – |
| N[C@@H](Cc1ccc(O)c(O)c1)C(=O)O [L-DOPA, (−)-L-a-amino-b-(3,4-dihydroxybenzene)propanoic acid] | – | slightly soluble in water | 300 to 1600 |
